We go through one compound from article PMC6131539, “Behavioral Effects of a Potential Novel TAAR1 Antagonist” (Frontiers in Pharmacology, 2018).

Molecules are shown by their SMILES.

One assay concerns the target T1, Alpha2C (Homo sapiens, UniProt P18825).
T1 construct: purchased NIMH Psychoactive Drug Screening Program (PDSP), University of North Carolina-Chapel Hill
Kind of assay: PDSP binding, primary screen. How it is done:
(§1) This was achieved through the identification of potential pharmacological targets of compound 22 using the Psychoactive Drug Screening Program (PDSP) at University of North Carolina-Chapel-Hill. PDSP provides a platform for screening novel psychoactive compounds on human proteins expressed in the central nervous system in order to identify their biological target(s) ([Besnard et al., 2012]). Binding studies were done on 47 targets at a single dose of compound 22 (10 μM; Supplementary Table S1). This primary screen yielded a total of 5 hits for compound 22 (Table 2). These hits were the serotonin, dopamine, and norepinephrine transporters, as well as the sigma 1 and sigma 2 receptors.
(§2) Supplemental Table 1. Compound 22 binding studies from PDSP: primary screen for compound 22 and subsequent hits (50% cut-off, hits highlighted in red). The primary screen was performed by PDSP as described previously (Besnard et al., 2012).

Another assay concerns the target T2, Alpha1B (Homo sapiens, UniProt P35368).
T2 construct: purchased NIMH Psychoactive Drug Screening Program (PDSP), University of North Carolina-Chapel Hill
Kind of assay: PDSP binding, primary screen. As for the experimental part: as §1, §2

For the next assay, the target named is T3, D1 (Homo sapiens, UniProt P21728).
T3 construct: purchased NIMH Psychoactive Drug Screening Program (PDSP), University of North Carolina-Chapel Hill
Kind of assay: PDSP binding, primary screen. As for the experimental part:
as §1, §2

The target in the next assay is T4, Beta2 (Homo sapiens, UniProt P07550).
T4 construct: purchased NIMH Psychoactive Drug Screening Program (PDSP), University of North Carolina-Chapel Hill
Nature of the assay: PDSP binding, primary screen. As for the experimental part: as §1, §2

A further assay addresses T5, DOR (Homo sapiens, UniProt P41143).
T5 construct: purchased NIMH Psychoactive Drug Screening Program (PDSP), University of North Carolina-Chapel Hill
Nature of the assay: PDSP binding, primary screen. As for the experimental part: as §1, §2

The target in the next assay is Dopamine Transporter (Homo sapiens, UniProt Q01959). Kind of assay: Fluorescent dopamine uptake assay in HEK293 cells stably expressing human HA-DAT. The format is cell-based. Set-up: expressed in transfected cells. As for the experimental part:
Fluorescent dopamine uptake assay kits were purchased from Molecular Devices (Sunnyvale, CA; catalog #: R6138). Stable cells expressing human HA-DAT were seeded on poly-D-lysine treated, black clear-bottom 96-well plates (Corning Catalog #: 3603) at a density of 1 × 10^5 cells/well, and incubated for 24 h prior to the start of the uptake experiment. […] The plates were then incubated for 30 min at 37°C. Following incubation, 100 μL of dye solution was added and fluorescence intensity was measured for 30 min at 37°C using the SpectraMax M3 (Molecular Devices, excitation: 440 nm, emission: 520 nm). The rate of reaction (slope of the curve in the linear range) was taken as the readout for the assay.
Data analyses were performed with Graphpad Prism 5.01 (GraphPad Software, Inc., La Jolla, CA). Linear regression analysis was used to quantify fluorescent dopamine transporter uptake activity. Dose response curves were fitted with non-linear curve fitting. Two-tailed Student’s t-tests or one-way ANOVA analysis with Dunnett’s post hoc correction was used where appropriate to determine differences between data sets.
The ability of compound 22 to directly disrupt uptake activity was assessed with a fluorescent uptake assay.
Error bars represent standard error of mean at N = 3.

Sequence of Dopamine Transporter (Q01959 with tags, fused parts or gaps H193Y/G195Y/DEL197-198/G199V/D200P/S201D/S202Y/G203A): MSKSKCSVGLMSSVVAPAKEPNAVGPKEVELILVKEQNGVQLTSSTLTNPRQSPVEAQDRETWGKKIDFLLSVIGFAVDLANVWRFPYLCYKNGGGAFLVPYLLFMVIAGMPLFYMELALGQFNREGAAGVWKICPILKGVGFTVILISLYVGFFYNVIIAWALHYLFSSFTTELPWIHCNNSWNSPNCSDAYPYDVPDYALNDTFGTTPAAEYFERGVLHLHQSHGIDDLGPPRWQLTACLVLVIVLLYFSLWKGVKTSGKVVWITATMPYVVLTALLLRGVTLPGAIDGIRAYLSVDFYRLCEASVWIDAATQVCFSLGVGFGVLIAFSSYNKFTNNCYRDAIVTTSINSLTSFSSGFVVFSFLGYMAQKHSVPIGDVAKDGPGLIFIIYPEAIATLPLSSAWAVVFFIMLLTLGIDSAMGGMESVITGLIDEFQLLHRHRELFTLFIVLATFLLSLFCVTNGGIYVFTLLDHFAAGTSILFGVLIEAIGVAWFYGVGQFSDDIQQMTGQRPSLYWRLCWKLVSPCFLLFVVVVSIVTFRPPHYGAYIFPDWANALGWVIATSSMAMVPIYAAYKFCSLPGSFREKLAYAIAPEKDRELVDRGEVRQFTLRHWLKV
T2 sequence (P35368 whole entry): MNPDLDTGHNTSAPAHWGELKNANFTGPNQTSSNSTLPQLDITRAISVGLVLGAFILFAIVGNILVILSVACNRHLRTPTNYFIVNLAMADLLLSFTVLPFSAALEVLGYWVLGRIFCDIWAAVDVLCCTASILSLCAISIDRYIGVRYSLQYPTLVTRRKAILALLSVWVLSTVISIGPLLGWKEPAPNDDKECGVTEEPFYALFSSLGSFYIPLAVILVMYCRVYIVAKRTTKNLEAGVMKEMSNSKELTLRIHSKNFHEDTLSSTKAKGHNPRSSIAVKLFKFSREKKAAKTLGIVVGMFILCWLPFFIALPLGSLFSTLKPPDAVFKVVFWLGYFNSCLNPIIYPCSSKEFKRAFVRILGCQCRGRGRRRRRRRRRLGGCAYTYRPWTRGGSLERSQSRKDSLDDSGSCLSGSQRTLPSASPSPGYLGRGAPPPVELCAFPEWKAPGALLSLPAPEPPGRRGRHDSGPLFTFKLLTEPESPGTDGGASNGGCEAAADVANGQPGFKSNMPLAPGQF
T1 sequence (P18825 whole entry): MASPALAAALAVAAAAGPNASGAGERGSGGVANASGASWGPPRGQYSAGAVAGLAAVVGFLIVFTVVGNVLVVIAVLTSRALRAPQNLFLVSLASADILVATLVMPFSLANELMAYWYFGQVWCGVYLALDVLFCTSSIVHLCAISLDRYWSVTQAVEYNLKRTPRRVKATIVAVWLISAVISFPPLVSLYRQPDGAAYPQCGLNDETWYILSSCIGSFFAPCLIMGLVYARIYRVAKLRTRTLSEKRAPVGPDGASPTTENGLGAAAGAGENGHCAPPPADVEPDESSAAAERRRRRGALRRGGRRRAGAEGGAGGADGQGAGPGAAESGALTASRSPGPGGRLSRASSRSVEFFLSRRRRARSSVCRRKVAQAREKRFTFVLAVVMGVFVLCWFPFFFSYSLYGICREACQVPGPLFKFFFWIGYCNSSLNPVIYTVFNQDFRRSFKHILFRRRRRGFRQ
T5 sequence (P41143 whole entry): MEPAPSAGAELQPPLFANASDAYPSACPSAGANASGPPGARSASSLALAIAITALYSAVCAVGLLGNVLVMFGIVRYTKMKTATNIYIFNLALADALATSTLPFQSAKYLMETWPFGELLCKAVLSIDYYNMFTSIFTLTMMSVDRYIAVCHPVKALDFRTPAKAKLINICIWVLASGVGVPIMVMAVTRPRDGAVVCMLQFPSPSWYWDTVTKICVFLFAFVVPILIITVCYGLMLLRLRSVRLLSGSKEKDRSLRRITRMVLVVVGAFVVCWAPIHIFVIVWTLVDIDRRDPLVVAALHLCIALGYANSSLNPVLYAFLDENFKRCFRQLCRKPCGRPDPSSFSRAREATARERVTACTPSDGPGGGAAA
T4 sequence (P07550 whole entry): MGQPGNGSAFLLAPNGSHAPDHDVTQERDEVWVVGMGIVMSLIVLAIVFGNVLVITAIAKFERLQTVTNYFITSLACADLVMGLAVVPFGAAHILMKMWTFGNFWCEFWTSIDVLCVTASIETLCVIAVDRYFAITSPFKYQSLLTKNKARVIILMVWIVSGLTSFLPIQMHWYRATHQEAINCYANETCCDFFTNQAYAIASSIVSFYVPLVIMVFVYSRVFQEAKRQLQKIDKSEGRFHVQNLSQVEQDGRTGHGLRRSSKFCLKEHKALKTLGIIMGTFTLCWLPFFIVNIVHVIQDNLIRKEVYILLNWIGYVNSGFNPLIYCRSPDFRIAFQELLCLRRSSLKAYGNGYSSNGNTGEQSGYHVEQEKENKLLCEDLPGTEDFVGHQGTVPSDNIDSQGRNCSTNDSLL
T3 sequence (P21728 whole entry): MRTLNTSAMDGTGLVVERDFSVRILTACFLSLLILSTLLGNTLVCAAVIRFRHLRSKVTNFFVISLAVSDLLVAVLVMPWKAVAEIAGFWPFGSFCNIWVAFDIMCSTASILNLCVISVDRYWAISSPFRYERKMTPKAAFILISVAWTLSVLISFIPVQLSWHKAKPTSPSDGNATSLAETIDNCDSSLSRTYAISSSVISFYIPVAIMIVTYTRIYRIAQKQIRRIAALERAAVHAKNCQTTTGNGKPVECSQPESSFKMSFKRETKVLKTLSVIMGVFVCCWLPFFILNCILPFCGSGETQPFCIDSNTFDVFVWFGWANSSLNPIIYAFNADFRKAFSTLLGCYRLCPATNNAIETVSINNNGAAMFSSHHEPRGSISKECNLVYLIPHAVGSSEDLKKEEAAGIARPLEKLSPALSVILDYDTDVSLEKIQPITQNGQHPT

On to `Clc1ccc(CNCc2ccc(Cn3cncn3)cc2)c(Cl)c1` [compound 22], for which the inhibition at 10 µM at Alpha2C is -4.3%; at Alpha1B it was 12.8%; at D1, 16.1%; at Beta2 it was -0.6%; on DOR, 6.2%. The “effect on dopamine uptake activity” value on Dopamine Transporter (HEK293 cells stably expressing human HA-DAT, increasing doses) is on record as “no effect on dopamine uptake activity”. Also, the “effect on cocaine dose response inhibition of dopamine uptake” value on Dopamine Transporter (co-treatment with 1, 10 and 100 μM compound 22) is recorded as “did not alter”.

For orientation: inhibition means the change of the read-out against control, counted positive when it falls.
